Reference: paper PMC4457528, “Identification of Novel Small Molecule Inhibitors of Oncogenic RET Kinase” (PLoS ONE, 2015)
Like-named read-outs stand apart in the source and are kept apart here.

Assays:
Experiment in all cases: KinomeScan kinase panel, single concentration 10 µM
Type in all cases: binding
[1] = target: T1, KinomeScan kinase panel (Homo sapiens, UniProt P33981); details: kinase TTK; 10 µM; read-out: score (%)
T1 construct: purchased DiscoveRx (KinomeScan)
T1 sequence (P33981 1-857): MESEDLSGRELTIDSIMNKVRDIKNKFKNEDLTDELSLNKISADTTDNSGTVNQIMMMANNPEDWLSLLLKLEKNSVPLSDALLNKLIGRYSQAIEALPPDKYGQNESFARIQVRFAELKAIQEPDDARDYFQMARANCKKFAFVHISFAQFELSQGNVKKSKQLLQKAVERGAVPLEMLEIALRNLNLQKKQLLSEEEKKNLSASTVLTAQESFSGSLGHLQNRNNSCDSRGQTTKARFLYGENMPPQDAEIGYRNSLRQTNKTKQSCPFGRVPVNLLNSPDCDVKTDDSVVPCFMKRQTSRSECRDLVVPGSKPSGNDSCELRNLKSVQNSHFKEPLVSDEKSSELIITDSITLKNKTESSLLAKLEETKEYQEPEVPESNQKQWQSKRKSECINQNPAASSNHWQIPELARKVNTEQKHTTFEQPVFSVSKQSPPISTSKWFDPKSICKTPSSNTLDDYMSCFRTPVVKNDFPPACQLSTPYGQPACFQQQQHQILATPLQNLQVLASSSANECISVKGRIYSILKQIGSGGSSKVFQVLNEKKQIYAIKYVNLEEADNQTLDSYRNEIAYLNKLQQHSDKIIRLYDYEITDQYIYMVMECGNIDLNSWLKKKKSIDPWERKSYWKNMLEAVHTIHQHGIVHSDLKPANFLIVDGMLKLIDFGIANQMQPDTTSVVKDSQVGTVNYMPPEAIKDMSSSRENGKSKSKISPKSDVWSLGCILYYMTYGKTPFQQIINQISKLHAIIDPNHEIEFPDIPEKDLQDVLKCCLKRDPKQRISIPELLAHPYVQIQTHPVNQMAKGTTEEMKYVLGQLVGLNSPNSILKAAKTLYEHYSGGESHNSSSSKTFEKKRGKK

[2] = target: T2, KinomeScan kinase panel (Homo sapiens, UniProt P21709); details: EPHA1, 10 µM; read-out: score (%)
T2 construct: purchased DiscoveRx (KinomeScan)
T2 sequence (P21709 26-976): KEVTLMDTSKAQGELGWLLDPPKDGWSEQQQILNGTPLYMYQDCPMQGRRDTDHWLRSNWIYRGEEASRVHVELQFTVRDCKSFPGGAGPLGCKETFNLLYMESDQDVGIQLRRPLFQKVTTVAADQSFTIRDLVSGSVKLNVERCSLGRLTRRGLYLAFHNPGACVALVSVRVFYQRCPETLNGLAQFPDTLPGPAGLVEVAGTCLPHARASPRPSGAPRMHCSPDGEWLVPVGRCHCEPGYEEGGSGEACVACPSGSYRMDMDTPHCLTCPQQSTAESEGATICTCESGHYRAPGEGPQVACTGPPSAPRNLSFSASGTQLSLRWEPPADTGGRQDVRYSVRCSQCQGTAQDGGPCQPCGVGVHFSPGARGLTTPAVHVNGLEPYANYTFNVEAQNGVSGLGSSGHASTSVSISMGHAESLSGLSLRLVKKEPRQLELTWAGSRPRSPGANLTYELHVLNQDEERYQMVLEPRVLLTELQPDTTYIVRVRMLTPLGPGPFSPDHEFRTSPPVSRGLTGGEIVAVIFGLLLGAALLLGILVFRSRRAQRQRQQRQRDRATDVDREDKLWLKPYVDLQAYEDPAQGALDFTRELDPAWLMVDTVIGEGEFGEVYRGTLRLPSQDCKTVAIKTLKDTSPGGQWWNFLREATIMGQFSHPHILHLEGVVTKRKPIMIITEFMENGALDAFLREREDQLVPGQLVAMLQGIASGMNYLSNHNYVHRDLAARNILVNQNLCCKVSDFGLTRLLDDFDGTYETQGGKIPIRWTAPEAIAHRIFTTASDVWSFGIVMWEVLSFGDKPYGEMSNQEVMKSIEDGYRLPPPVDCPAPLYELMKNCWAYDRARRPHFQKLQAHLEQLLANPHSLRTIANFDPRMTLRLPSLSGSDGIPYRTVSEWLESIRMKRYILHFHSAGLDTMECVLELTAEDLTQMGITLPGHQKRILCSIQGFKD

[3] = target: T3, KinomeScan kinase panel (Homo sapiens, UniProt Q13153); details: PAK1, 10 µM; read-out: score (%)
T3 construct: purchased DiscoveRx (KinomeScan)

[4] = target: T4, KinomeScan kinase panel (Homo sapiens, UniProt Q04771); details: ACVR1, 10 µM; read-out: score (%)
T4 construct: purchased DiscoveRx (KinomeScan)
T4 sequence (Q04771 21-509): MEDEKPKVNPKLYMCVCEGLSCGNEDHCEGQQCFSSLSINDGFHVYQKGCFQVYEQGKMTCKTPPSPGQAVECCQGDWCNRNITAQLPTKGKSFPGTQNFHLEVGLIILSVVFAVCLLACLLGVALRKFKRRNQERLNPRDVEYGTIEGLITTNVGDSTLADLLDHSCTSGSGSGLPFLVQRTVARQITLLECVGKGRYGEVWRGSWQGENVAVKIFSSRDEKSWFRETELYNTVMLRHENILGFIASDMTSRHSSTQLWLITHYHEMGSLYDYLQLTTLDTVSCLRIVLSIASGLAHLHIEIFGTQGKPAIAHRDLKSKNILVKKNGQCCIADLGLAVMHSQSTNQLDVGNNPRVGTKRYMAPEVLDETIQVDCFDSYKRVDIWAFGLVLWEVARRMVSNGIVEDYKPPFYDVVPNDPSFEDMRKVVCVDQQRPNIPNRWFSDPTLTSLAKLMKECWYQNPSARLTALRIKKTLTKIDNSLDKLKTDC

[5] = target: T5, KinomeScan kinase panel (Homo sapiens, UniProt Q07912); details: read-out: score (%)
T5 construct: purchased DiscoveRx (KinomeScan)

[6] = target: T6, KinomeScan kinase panel (Homo sapiens, UniProt P35968); details: kinase VEGFR2; 10 µM; read-out: score (%)
T6 construct: purchased DiscoveRx (KinomeScan)

[7] = target: T7, KinomeScan kinase panel (Homo sapiens, UniProt Q16539); details: p38-alpha, 10 µM
T7 construct: purchased DiscoveRx (KinomeScan)
T7 sequence (Q16539 whole entry): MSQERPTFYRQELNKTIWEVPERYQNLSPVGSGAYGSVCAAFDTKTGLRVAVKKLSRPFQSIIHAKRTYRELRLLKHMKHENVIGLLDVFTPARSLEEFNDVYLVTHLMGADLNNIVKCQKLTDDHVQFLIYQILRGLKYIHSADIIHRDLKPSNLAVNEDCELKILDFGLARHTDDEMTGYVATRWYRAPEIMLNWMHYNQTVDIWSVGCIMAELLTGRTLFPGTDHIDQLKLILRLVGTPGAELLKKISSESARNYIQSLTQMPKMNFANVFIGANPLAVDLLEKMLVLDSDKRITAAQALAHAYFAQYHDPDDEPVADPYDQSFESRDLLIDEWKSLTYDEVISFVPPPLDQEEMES

T6 sequence (P35968 20-1356): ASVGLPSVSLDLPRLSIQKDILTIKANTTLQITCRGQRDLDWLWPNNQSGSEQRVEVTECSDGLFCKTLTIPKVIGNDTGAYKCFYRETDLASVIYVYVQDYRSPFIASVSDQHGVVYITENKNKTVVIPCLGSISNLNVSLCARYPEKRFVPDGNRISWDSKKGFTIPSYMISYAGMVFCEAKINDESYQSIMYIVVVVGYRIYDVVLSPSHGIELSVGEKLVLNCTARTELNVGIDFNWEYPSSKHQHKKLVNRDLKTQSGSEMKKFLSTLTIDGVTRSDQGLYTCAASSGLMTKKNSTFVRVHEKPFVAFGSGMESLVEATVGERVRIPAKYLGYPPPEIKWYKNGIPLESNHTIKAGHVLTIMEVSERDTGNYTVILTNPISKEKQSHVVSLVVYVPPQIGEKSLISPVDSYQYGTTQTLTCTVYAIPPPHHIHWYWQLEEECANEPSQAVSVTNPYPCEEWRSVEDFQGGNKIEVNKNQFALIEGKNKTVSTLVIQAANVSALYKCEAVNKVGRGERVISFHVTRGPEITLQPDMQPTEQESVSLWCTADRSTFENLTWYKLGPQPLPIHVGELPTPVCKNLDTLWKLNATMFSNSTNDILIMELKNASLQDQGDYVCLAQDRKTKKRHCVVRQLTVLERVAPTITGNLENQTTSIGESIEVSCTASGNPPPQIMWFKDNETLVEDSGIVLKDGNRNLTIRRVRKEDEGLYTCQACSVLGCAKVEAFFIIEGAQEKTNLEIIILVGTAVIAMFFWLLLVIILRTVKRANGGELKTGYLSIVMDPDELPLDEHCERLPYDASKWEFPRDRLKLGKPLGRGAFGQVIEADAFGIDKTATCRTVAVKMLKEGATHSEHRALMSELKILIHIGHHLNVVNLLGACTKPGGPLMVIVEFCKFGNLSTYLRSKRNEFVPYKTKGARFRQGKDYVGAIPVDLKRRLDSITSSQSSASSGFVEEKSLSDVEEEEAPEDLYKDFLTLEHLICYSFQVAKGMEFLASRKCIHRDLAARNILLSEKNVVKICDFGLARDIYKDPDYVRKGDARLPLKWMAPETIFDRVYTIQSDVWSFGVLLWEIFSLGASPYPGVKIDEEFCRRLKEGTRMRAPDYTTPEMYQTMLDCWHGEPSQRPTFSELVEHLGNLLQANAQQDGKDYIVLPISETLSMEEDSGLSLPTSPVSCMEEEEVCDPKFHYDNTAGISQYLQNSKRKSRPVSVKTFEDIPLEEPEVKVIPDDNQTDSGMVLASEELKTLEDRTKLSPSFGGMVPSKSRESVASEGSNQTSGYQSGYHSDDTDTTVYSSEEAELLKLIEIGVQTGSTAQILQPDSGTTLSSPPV
T3 sequence (Q13153 whole entry): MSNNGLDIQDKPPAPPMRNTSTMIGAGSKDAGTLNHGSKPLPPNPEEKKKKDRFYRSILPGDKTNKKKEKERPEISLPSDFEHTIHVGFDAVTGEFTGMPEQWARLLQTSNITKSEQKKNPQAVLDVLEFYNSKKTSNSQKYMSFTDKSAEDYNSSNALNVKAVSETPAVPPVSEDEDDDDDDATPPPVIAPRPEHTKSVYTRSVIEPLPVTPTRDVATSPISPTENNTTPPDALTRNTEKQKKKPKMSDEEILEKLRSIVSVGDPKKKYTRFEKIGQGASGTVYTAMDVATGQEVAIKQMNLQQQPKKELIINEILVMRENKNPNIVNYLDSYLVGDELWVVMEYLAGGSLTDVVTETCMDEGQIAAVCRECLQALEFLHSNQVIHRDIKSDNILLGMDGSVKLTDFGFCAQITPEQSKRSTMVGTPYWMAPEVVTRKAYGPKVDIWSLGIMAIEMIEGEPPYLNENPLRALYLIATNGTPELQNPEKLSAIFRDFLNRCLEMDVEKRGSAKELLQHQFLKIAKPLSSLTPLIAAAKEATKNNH
T5 sequence (Q07912 whole entry): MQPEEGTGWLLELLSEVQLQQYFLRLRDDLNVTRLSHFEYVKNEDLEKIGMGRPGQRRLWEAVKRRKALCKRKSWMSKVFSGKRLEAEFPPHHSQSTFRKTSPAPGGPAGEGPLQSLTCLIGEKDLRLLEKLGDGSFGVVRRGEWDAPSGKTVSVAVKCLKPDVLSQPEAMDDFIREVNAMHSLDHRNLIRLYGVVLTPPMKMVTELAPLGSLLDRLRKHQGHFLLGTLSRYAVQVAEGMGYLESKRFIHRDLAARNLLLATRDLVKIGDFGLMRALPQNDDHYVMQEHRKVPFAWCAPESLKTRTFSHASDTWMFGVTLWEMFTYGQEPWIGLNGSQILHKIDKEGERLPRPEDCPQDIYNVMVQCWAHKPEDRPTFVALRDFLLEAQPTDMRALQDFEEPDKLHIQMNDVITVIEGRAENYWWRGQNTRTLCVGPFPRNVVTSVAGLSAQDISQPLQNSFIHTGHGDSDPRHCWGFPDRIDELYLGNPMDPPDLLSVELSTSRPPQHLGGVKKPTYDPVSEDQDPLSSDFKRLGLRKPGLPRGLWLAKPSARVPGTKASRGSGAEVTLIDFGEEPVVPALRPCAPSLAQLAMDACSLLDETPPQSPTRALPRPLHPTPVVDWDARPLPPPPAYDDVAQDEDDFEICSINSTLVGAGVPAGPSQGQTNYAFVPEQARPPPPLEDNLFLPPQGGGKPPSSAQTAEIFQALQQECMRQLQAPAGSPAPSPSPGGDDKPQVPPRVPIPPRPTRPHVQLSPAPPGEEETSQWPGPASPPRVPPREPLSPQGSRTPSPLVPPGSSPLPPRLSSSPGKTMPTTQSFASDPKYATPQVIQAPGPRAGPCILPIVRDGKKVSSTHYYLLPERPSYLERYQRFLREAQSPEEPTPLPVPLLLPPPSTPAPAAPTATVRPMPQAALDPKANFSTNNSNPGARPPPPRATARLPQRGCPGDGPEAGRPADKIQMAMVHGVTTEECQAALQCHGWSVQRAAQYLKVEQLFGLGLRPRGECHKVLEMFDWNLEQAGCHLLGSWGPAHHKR

SMILES	remaining binding at 10 µM [1] [%]	remaining binding at 10 µM [2] [%]	remaining binding at 10 µM [3] [%]	remaining binding at 10 µM [4] [%]	remaining binding at 10 µM ([5]; kinase TNK2, 10 µM) [%]	remaining binding at 10 µM [6] [%]	score (%) [7] [%]	remaining binding at 10 µM ([5]; TNK2, 10 µM) [%]
CCN1CCN(Cc2ccc(NC(=O)c3ccc(C)c(NC(=O)c4cncc(-c5cccs5)c4)c3)cc2C(F)(F)F)CC1 [ALW-II-41-27]	> 30	3.8	> 30	> 30	2.1	1.8	0	
CCN1CCN(Cc2ccc(NC(=O)c3ccc(C)c(C#Cc4cccnc4)c3)cc2C(F)(F)F)CC1 [XMD15-44]	16	1.2	81	> 30	11	0.25	0	
CCN1CCN(Cc2ccc(NC(=O)c3ccc(C)c(/C=C/c4cnc5[nH]ccc5c4Cl)c3)cc2C(F)(F)F)CC1 [HG-6-63-01, (E)-3-(2-(4-chloro-1H-pyrrolo[2,3-b]pyridin-5-yl)vinyl)-N-(4-((4-ethylpiperazin-1-yl)methyl)-3-(trifluoromethyl)phenyl)-4-methylbenzamide]	> 30	5.5	> 30	> 30		0.35	0.15	0.5
